Results reported in patent publication US6777425B2, “Isoquinoline compounds having antiinfective activity” (Genesoft Pharmaceuticals, Inc., priority 2001, dated 2004).

Key:
S. aureus ATCC 13709 = test: NCCLS broth microdilution MIC, S. aureus (MSSA); assay type: cell-based, Staphylococcus aureus; details: organism E = S. aureus ATCC 13709 (MSSA)
Text: (§1) Compounds according to this invention were screened for their in vitro activities against selected species of bacteria and fungi. […]

S. pneumoniae ATCC 49619 = test: NCCLS broth microdilution MIC, S. pneumoniae ATCC 49619; assay type: cell-based, Streptococcus pneumoniae; details: organism H = S. pneumoniae ATCC 49619
Text: as §1

E. faecium ATCC 51559 = test: NCCLS broth microdilution MIC, E. faecium (VRE); assay type: cell-based, Enterococcus faecium; details: organism D = E. faecium ATCC 51559 (VRE)
Text: as §1

[1] = system: S. epidermidis ATCC 12228; test: NCCLS broth microdilution MIC, S. epidermidis; assay type: cell-based, Staphylococcus epidermidis; details: organism G = S. epidermidis ATCC 12228
Text: as §1

S. aureus ATCC 27660 = test: NCCLS broth microdilution MIC, S. aureus (MRSA); assay type: cell-based, Staphylococcus aureus; details: organism F = S. aureus ATCC 27660 (MRSA)
Text: as §1

C. albicans ATCC 38247 = test: Antifungal MIC, C. albicans; assay type: cell-based, Candida albicans; details: organism B = C. albicans ATCC 38247
Text: as §1

S. pneumoniae ATCC 51422 = test: NCCLS broth microdilution MIC, S. pneumoniae (PRSP); assay type: cell-based, Streptococcus pneumoniae; details: organism I = S. pneumoniae ATCC 51422 (PRSP)
Text: as §1

B. cereus ATCC 11778 = test: NCCLS broth microdilution MIC, B. cereus; assay type: cell-based, Bacillus cereus; details: organism A = B. cereus ATCC 11778
Text: as §1

E. faecalis ATCC 29212 = test: NCCLS broth microdilution MIC, E. faecalis; assay type: cell-based; details: organism C = E. faecalis ATCC 29212
Text: as §1

[2] = Staphylococcus aureus, read-out: Minimum Inhibitory Concentration (MIC)

Minimum Inhibitory Concentration (MIC) (S. aureus ATCC 13709) | Minimum Inhibitory Concentration (MIC) (S. pneumoniae ATCC 49619) | Minimum Inhibitory Concentration (MIC) (E. faecium ATCC 51559) | Minimum Inhibitory Concentration (MIC) [1] | Minimum Inhibitory Concentration (MIC) (S. aureus ATCC 27660) | Minimum Inhibitory Concentration (MIC) (C. albicans ATCC 38247) | Minimum Inhibitory Concentration (MIC) (S. pneumoniae ATCC 51422) | Minimum Inhibitory Concentration (MIC) (B. cereus ATCC 11778) | Minimum Inhibitory Concentration (MIC) (E. faecalis ATCC 29212) | MIC (S. aureus ATCC 13709; [2]) [µg/mL] | MIC (S. pneumoniae ATCC 49619; Streptococcus pneumoniae, ATCC49619, read-out: Minimum Inhibitory Concentration (MIC)) [µg/mL] | MIC (S. aureus ATCC 27660; [2]) [µg/mL] | MIC (C. albicans ATCC 38247; Candida albicans, ATCC38247, read-out: Minimum Inhibitory Concentration (MIC)) [µg/mL] | MIC (B. cereus ATCC 11778; Bacillus cereus, ATCC11778, read-out: Minimum Inhibitory Concentration (MIC)) [µg/mL] | MIC (E. faecalis ATCC 29212; Enterococcus faecalis, ATCC29212, read-out: Minimum Inhibitory Concentration (MIC)) [µg/mL] | SMILES
+++ (+++ = MIC ≦ 4) | +++ (+++ = MIC ≦ 4) | +++ (+++ = MIC ≦ 4) | +++ (+++ = MIC ≦ 4) | +++ (+++ = MIC ≦ 4) | >32 µg/mL | +++ (+++ = MIC ≦ 4) | +++ (+++ = MIC ≦ 4) | +++ (+++ = MIC ≦ 4) | – | – | – | – | – | – | Cn1cc(NC(=O)c2cc(NC(=O)c3cc(NC(=O)c4cc5ccccc5cn4)c[nH]3)cn2C)cc1C(=O)NCCN1CCOCC1 [Ib-50]
+++ (+++ = MIC ≦ 4) | +++ (+++ = MIC ≦ 4) | ++ (++ = 4 < MIC < 12) | ++ (++ = 4 < MIC < 12) | +++ (+++ = MIC ≦ 4) | ++ (++ = 4 < MIC < 12) | + (+ = 12 ≦ MIC ≦ 32) | +++ (+++ = MIC ≦ 4) | +++ (+++ = MIC ≦ 4) | – | – | – | – | – | – | Cn1cc(NC(=O)c2cc(NC(=O)c3cc(NC(=O)c4cc5ccccc5cn4)cs3)cn2C)cc1C(=O)NCCN1CCOCC1 [Ib-51]
+++ (+++ = MIC ≦ 4) | +++ (+++ = MIC ≦ 4) | +++ (+++ = MIC ≦ 4) | +++ (+++ = MIC ≦ 4) | +++ (+++ = MIC ≦ 4) | >32 µg/mL | +++ (+++ = MIC ≦ 4) | +++ (+++ = MIC ≦ 4) | +++ (+++ = MIC ≦ 4) | – | – | – | – | – | – | Cn1cc(NC(=O)c2cc3ccccc3cn2)cc1C(=O)Nc1cc(C(=O)Nc2cc(C(=O)NCCN3CCOCC3)ns2)n(C)c1 [Ib-52]
+++ (+++ = MIC ≦ 4) | +++ (+++ = MIC ≦ 4) | – | – | +++ (+++ = MIC ≦ 4) | + (+ = 12 ≦ MIC ≦ 32) | – | +++ (+++ = MIC ≦ 4) | +++ (+++ = MIC ≦ 4) | – | – | – | – | – | – | CCN(CC)CCNC(=O)c1cc(NC(=O)c2cc(NC(=O)c3cc(NC(=O)c4cc5ccccc5cn4)cn3C)c[nH]2)cn1C [Ib-89]
+++ (+++ = MIC ≦ 4) | +++ (+++ = MIC ≦ 4) | – | – | +++ (+++ = MIC ≦ 4) | >32 µg/mL | – | +++ (+++ = MIC ≦ 4) | +++ (+++ = MIC ≦ 4) | – | – | – | – | – | – | Cn1cc(NC(=O)c2cc(NC(=O)c3cc(NC(=O)c4cc5ccccc5cn4)cn3C)c[nH]2)cc1C(=O)NCCCNC1CCCCC1 [Ib-92]
+++ (+++ = MIC ≦ 4) | +++ (+++ = MIC ≦ 4) | – | – | +++ (+++ = MIC ≦ 4) | >32 µg/mL | – | +++ (+++ = MIC ≦ 4) | +++ (+++ = MIC ≦ 4) | – | – | – | – | – | – | Cn1cc(NC(=O)c2ccc(NC(=O)c3cc(NC(=O)c4cc5ccccc5cn4)cn3C)cc2)cc1C(=O)NCCN1CCC(O)CC1 [Ic-8]
+++ (+++ = MIC ≦ 4) | +++ (+++ = MIC ≦ 4) | – | – | +++ (+++ = MIC ≦ 4) | >32 µg/mL | – | +++ (+++ = MIC ≦ 4) | +++ (+++ = MIC ≦ 4) | – | – | – | – | – | – | Cn1cc(NC(=O)c2ccc(NC(=O)c3cc(NC(=O)c4cc5ccccc5cn4)cn3C)cc2)cc1C(=O)NCCN1CCCC1 [Ic-10]
+++ (+++ = MIC ≦ 4) | +++ (+++ = MIC ≦ 4) | – | – | +++ (+++ = MIC ≦ 4) | >32 µg/mL | – | >32 µg/mL | +++ (+++ = MIC ≦ 4) | – | – | – | – | – | – | Cn1cc(NC(=O)c2ccc(NC(=O)c3cc(NC(=O)c4cc5ccccc5cn4)cn3C)cc2)cc1C(=O)NCCCN1CCOCC1 [Ic-11]
+++ (+++ = MIC ≦ 4) | +++ (+++ = MIC ≦ 4) | – | – | +++ (+++ = MIC ≦ 4) | >32 µg/mL | – | >32 µg/mL | >32 µg/mL | – | – | – | – | – | – | CN1CCN(CCNC(=O)c2cc(NC(=O)c3ccc(NC(=O)c4cc(NC(=O)c5cc6ccccc6cn5)cn4C)cc3)cn2C)CC1 [Ic-14]
+++ (+++ = MIC ≦ 4) | +++ (+++ = MIC ≦ 4) | – | – | +++ (+++ = MIC ≦ 4) | >32 µg/mL | – | +++ (+++ = MIC ≦ 4) | +++ (+++ = MIC ≦ 4) | – | – | – | – | – | – | CC1CN(CCNC(=O)c2cc(NC(=O)c3ccc(NC(=O)c4cc(NC(=O)c5cc6ccccc6cn5)cn4C)cc3)cn2C)CC(C)O1 (stereo not shown) [Ic-17]
– | – | – | – | – | – | – | – | – | < 4 | < 4 | < 4 | > 32 | < 4 | < 4 | Cn1cc(NC(=O)c2cc3ccccc3cn2)cc1C(=O)Nc1cc(C(=O)Nc2ccc3sc(C(=O)NCCN4CCOCC4)cc3c2)n(C)c1 [Id-1]

The next lines start with the compound.

SMILES | Minimum Inhibitory Concentration (MIC) (S. aureus ATCC 13709) | Minimum Inhibitory Concentration (MIC) (S. pneumoniae ATCC 49619) | Minimum Inhibitory Concentration (MIC) (E. faecium ATCC 51559) | Minimum Inhibitory Concentration (MIC) [1] | Minimum Inhibitory Concentration (MIC) (S. aureus ATCC 27660) | Minimum Inhibitory Concentration (MIC) (C. albicans ATCC 38247) | Minimum Inhibitory Concentration (MIC) (S. pneumoniae ATCC 51422) | Minimum Inhibitory Concentration (MIC) (B. cereus ATCC 11778) | Minimum Inhibitory Concentration (MIC) (E. faecalis ATCC 29212) | MIC (S. aureus ATCC 13709; [2]) [µg/mL] | MIC (S. pneumoniae ATCC 49619; Streptococcus pneumoniae, ATCC49619, read-out: Minimum Inhibitory Concentration (MIC)) [µg/mL] | MIC (S. aureus ATCC 27660; [2]) [µg/mL] | MIC (C. albicans ATCC 38247; Candida albicans, ATCC38247, read-out: Minimum Inhibitory Concentration (MIC)) [µg/mL] | MIC (B. cereus ATCC 11778; Bacillus cereus, ATCC11778, read-out: Minimum Inhibitory Concentration (MIC)) [µg/mL] | MIC (E. faecalis ATCC 29212; Enterococcus faecalis, ATCC29212, read-out: Minimum Inhibitory Concentration (MIC)) [µg/mL]
Cn1cc(NC(=O)c2cc(NC(=O)c3cc4ccccc4cn3)cn2CCCN2CCCCC2)cc1C(=O)Nc1ccc2cnccc2c1 [Ib-90] | +++ (+++ = MIC ≦ 4) | +++ (+++ = MIC ≦ 4) | – | – | +++ (+++ = MIC ≦ 4) | + (+ = 12 ≦ MIC ≦ 32) | – | +++ (+++ = MIC ≦ 4) | +++ (+++ = MIC ≦ 4) | – | – | – | – | – | –
Cn1cc(NC(=O)c2cc(NC(=O)c3cc4ccccc4cn3)cn2CCCN2CCCC2)cc1C(=O)Nc1ccc2cnccc2c1 [Ib-91] | +++ (+++ = MIC ≦ 4) | +++ (+++ = MIC ≦ 4) | – | – | +++ (+++ = MIC ≦ 4) | >32 µg/mL | – | +++ (+++ = MIC ≦ 4) | +++ (+++ = MIC ≦ 4) | – | – | – | – | – | –
C[C@@H]1CCC[C@H](C)N1CCNC(=O)c1cc(NC(=O)c2ccc(NC(=O)c3cc(NC(=O)c4cc5ccccc5cn4)cn3C)cc2)cn1C [Ic-6] | +++ (+++ = MIC ≦ 4) | +++ (+++ = MIC ≦ 4) | – | – | +++ (+++ = MIC ≦ 4) | >32 µg/mL | +++ (+++ = MIC ≦ 4) | +++ (+++ = MIC ≦ 4) | +++ (+++ = MIC ≦ 4) | – | – | – | – | – | –
CCN(CC)CCNC(=O)c1cc(NC(=O)c2ccc(NC(=O)c3cc(NC(=O)c4cc5ccccc5cn4)cn3C)cc2)cn1C [Ic-9] | +++ (+++ = MIC ≦ 4) | +++ (+++ = MIC ≦ 4) | – | – | +++ (+++ = MIC ≦ 4) | >32 µg/mL | – | +++ (+++ = MIC ≦ 4) | +++ (+++ = MIC ≦ 4) | – | – | – | – | – | –
CN(C)CCCNC(=O)c1cc(NC(=O)c2ccc(NC(=O)c3cc(NC(=O)c4cc5ccccc5cn4)cn3C)cc2)cn1C [Ic-15] | +++ (+++ = MIC ≦ 4) | +++ (+++ = MIC ≦ 4) | – | – | +++ (+++ = MIC ≦ 4) | >32 µg/mL | – | >32 µg/mL | >32 µg/mL | – | – | – | – | – | –
CN(C)CCNC(=O)c1cc(NC(=O)c2ccc(NC(=O)c3cc(NC(=O)c4cc5ccccc5cn4)cn3C)cc2)cn1C [Ic-16] | +++ (+++ = MIC ≦ 4) | +++ (+++ = MIC ≦ 4) | – | – | +++ (+++ = MIC ≦ 4) | >32 µg/mL | – | +++ (+++ = MIC ≦ 4) | +++ (+++ = MIC ≦ 4) | – | – | – | – | – | –
CCN(CCO)CCNC(=O)c1cc(NC(=O)c2ccc(NC(=O)c3cc(NC(=O)c4cc5ccccc5cn4)cn3C)cc2)cn1C [Ic-18] | +++ (+++ = MIC ≦ 4) | +++ (+++ = MIC ≦ 4) | – | – | +++ (+++ = MIC ≦ 4) | >32 µg/mL | – | +++ (+++ = MIC ≦ 4) | +++ (+++ = MIC ≦ 4) | – | – | – | – | – | –
